Assay results as given in patent US9394285B2 (Pfizer Inc., priority 2013, dated 2016).

Target: human AMPK (full-length γ1, β1 and α1 subunits) (Homo sapiens (Human), UniProt Q13131+Q9Y478)
Assay: AMPK in vitro biochemical assay (33P-based, SAMS peptide, PP2A dephosphorylation)
Conditions: for EC50: activation of phosphorylated AMPK, 33P-ATP, SAMS peptide, PP2A treatment, 4-parameter fit; for Emax: counts as % of positive control wells (enzyme, allosteric activator or AMP, PP2A and substrate), read-out: Maximum
Source text: We designed a tricistronic AMPK expression construct that included open reading frames encoding the full-length γ1, β1 and α1 subunits of human AMPK with a ribosome-binding site (RBS) ahead of each coding region and subcloned this into pET-14b expression vector (Novagen, Madison, Wis.) using standard molecular biology techniques. AMPK tricistronic construct was transformed into E. coli BL21-CodonPlus™ (DE3)-RIPL strain (Stratagene) and transformants were selected on LB (Luria-Bertani) agar plates containing ampicillin (100 μg/ml). […] Optical density sample measurements were made on an UltroSpec 2000 spectrophotometer (Pharmacia Biotech) at 600 nm. When the cell density reached ˜0.9 OD, the temperature was reduced to 18° C. and the culture was induced at 18° C. with 0.1 mM Isopropylthiogalactoside (IPTG). […] The cell pellets were aliquoted into four portions, flash frozen in liquid nitrogen and were stored at −80° C. until purification. For purification, frozen cell paste was thawed and resuspended in 50 ml lysis buffer (50 mM Tris, pH 8.0, 150 mM NaCl, 10% glycerol, 2 mM Tris-2-carboxyethyl phosphine (TCEP), 20 mM imidazole and 0.001% Triton X-100). After sonication, insoluble material was removed by centrifugation at 15,000 rpm in a Sorvall® RC5 plus centrifuge for 30 min at 4° C. and the supernatant was loaded onto a 5 ml HisTrap™ HP column (GE Healthcare, Piscataway, N.J.) and washed with five column volumes of lysis buffer. Bound proteins were eluted using an elution buffer containing 300 mM imidazole. Fractions containing AMPK subunits were pooled based on SDS-10% PAGE analysis and dialyzed overnight in dialysis buffer (50 mM Tris, pH 8.0, 150 mM NaCl, 10% glycerol, 2 mM TCEP, and 0.001% Triton X-100). […] The phosphorylated AMPK complex was re-purified on HisTrap™ HP column as before, dialyzed over night in dialysis buffer. The phosphorylated AMPK complex was further purified by gel filtration chromatography with a Superdex 200 HiLoad 16/60 column (GE Healthcare) in SEC buffer (50 mM Tris, pH 8.0, 150 mM NaCl, 10% glycerol, 2 mM TCEP, and 0.001% Triton X-100).
The harvest time (72 hours post infection) was indicated by percent cell viability (to 85-90%) and increased cell diameter (3-4 μm). […] For purification, the cell paste was resuspended in 500 mL lysis buffer (50 mM Tris pH 8.0, 150 mM NaCl, 25 mM imidazole, 10% glycerol, 2 mM MgCl2, 2 mM TCEP+protease inhibitor cocktail. After lysis, cellular debris was removed by centrifugation at 36K×g for 1 hour. The resulting supernatant was filtered at 0.2 micron before applying to a 1 mL nickel charged IMAC column (HisTrap, GE). The bound resin was washed to baseline with 50 CV of 50 mM Tris pH 8.0, 150 mM NaCl, 25 mM imidazole, 10% glycerol, 2 mM MgCl2, 2 mM TCEP before eluting over a 20 CV gradient to 100% with wash buffer containing 500 mM imidazole. Pooled fractions containing PP2A were combined and diluted 10× with 50 mM Tris pH 8.0, 10% glycerol, 1 mM TCEP and applied to a 1 mL AIEX resin (HiTrap QFF, GE). The bound resin was washed with dilution buffer and PP2A was eluted over a 20 CV gradient to 100% 50 mM Tris pH 8.0, 500 mM NaCl, 10% glycerol, 1 mM TCEP and was further diluted 1:1 with 50 mM Tris pH 8.0, 150 mM NaCl, 10% glycerol, and 1 mM TCEP buffer.
The biochemical EC50 (half-maximal concentration required for full activation) of compounds for the activation of AMPK was evaluated by ^33P-based assay using SAMS peptide (commercially available) derived from ACC-1. Twenty μl of phosphorylated AMPK diluted in assay buffer, (50 mM HEPES, 1 mM EGTA, 10 mM MgCl2, 0.25 mM DTT, 0.01% Tween-20, 0.01% BSA (pH 7.5)) was added to 384 well plates containing 1 μL of test compound. Following a fifteen minute room temperature incubation, 10 μL of protein phosphatase PP2A was added to the plate to dephosphorylate pThr172 of AMPK. […] The reaction was terminated after 60 minutes incubation at room temperature by the addition of 15 μL of 2% H3PO4.

human AMPK (full-length γ1, β1 and α1 subunits), sequence (Q13131 whole entry): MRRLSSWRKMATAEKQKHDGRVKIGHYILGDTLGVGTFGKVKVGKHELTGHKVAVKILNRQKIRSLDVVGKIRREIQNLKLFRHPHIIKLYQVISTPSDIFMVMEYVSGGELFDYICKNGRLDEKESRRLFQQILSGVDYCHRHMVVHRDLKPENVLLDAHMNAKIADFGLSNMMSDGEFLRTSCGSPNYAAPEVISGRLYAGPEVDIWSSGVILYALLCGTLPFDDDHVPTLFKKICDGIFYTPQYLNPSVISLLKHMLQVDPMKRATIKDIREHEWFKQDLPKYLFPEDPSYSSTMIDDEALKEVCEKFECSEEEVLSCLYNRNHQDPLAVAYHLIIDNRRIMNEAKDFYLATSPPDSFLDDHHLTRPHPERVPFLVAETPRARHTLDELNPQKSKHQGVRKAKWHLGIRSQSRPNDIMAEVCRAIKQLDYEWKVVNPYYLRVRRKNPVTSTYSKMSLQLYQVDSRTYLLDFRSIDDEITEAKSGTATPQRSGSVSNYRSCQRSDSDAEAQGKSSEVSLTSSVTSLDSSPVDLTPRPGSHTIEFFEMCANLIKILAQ
human AMPK (full-length γ1, β1 and α1 subunits), sequence (Q9Y478 whole entry): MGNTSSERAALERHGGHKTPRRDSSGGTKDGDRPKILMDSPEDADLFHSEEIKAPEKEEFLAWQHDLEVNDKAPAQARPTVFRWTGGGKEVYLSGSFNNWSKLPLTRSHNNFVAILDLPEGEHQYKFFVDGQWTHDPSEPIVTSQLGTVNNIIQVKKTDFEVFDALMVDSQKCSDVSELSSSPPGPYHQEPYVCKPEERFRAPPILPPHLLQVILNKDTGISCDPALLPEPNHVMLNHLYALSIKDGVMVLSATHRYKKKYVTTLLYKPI
human AMPK (full-length γ1, β1 and α1 subunits), sequence (P54619 whole entry partner): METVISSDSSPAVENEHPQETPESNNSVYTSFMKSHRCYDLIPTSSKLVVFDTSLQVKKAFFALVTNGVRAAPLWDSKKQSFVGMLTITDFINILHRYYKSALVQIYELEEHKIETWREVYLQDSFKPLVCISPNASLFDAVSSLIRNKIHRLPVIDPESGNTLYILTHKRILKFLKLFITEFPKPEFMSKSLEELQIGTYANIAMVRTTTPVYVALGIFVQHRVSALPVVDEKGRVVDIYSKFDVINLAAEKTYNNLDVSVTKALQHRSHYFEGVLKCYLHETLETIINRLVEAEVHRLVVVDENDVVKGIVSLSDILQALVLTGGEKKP

Structure (SMILES) | EC50 | Emax
O=C(O)c1c[nH]c2cc(Cl)c(-c3ccc(O[C@@H]4CCC[C@H]4O)cc3)cc12 (racemic) [Example 38, (±)-6-chloro-5-(4-{[trans-2-hydroxycyclopentyl]oxy}phenyl)-1H-indole-3-carboxylic acid] | 106 nM | 93%
CC(=O)N1CCC(c2ccc(-c3cc4c(C(=O)O)c[nH]c4cc3Cl)cc2)C1 (stereo not shown) [Example 15, 5-[4-(1-acetylpyrrolidin-3-yl)phenyl]-6-chloro-1H-indole-3-carboxylic acid] | 632 nM | 92%
COc1cccc(-c2cc3c(C(=O)O)c[nH]c3cc2Cl)c1 [Example 29, 6-chloro-5-(3-methoxyphenyl)-1H-indole-3-carboxylic acid] | 383 nM | 101%
CS(=O)(=O)N1CCC(c2ccc(-c3cc4c(C(=O)O)c[nH]c4cc3Cl)cc2)C1 (stereo not shown) [Example 16, 6-chloro-5-{4-[1-(methylsulfonyl)pyrrolidin-3-yl]phenyl}-1H-indole-3-carboxylic acid] | 412 nM | 114%
CN(C)c1ncc(-c2cc3c(C(=O)O)c[nH]c3cc2Cl)cn1 [Example 73, 6-chloro-5-[2-(dimethylamino)pyrimidin-5-yl]-1H-indole-3-carboxylic acid] | 790 nM | 118%
CC(C)Oc1ccc(-c2cc3c(C(=O)O)n[nH]c3cc2Cl)cc1 [Example 100, 6-Chloro-5-(4-isopropoxyphenyl)-1H-indazole-3-carboxylic acid] | 190 nM | 80%
O=C(O)c1c[nH]c2cc(Cl)c(-c3ccc(OCC4COC4)cc3)cc12 [Example 89, 6-chloro-5-[4-(oxetan-3-ylmethoxy)phenyl]-1H-indole-3-carboxylic acid] | 65.4 nM | 99%
COc1ccc(-c2cc3c(C(=O)O)c[nH]c3cc2Cl)cc1OC [Example 37, 6-chloro-5-(3,4-dimethoxyphenyl)-1H-indole-3-carboxylic acid] | 248 nM | 81%
CC(=O)NCCOc1ccc(-c2cc3c(C(=O)O)c[nH]c3cc2Cl)cc1 [Example 10, 5-{4-[2-(acetylamino)ethoxy]phenyl}-6-chloro-1H-indole-3-carboxylicacid] | 69.9 nM | 91%
O=C(O)c1c[nH]c2cc(Cl)c(-c3ccc(CCCO)cc3)cc12 [Example 80, 6-chloro-5-[4-(3-hydroxypropyl)phenyl]-1H-indole-3-carboxylic acid] | 182 nM | 108%
O=C(O)c1c[nH]c2cc(Cl)c(-c3ccc(C4(O)CCC4)c(F)c3)cc12 [Example 42, 6-chloro-5-[3-fluoro-4-(1-hydroxycyclobutyl)phenyl]-1H-indole-3-carboxylic acid] | 21.8 nM | 65%
CC(=O)c1ccc(-c2cc3c(C(=O)O)n[nH]c3cc2Cl)cc1 [Example 105, 5-(4-Acetylphenyl)-6-chloro-1H-indazole-3-carboxylic acid] | 122 nM | 84%
O=C(O)c1c[nH]c2cc(Cl)c(-c3ccc(CO)cc3)cc12 [Example 2, 6-Chloro-5-[4-(hydroxymethyl)phenyl]-1H-indole-3-carboxylic acid] | 64.7 nM | 88%
CC(=O)N1CC(Oc2ccc(-c3cc4c(C(=O)O)c[nH]c4cc3Cl)cc2)C1 [Example 8, 5-{4-[(1-acetylazetidin-3-yl)oxy]phenyl}-6-chloro-1H-indole-3-carboxylic acid] | 220 nM | 94%

Second part, the compound after the results:

EC50 | Emax | Structure (SMILES)
> 50000 nM |  | O=S(=O)(O)c1c[nH]c2cc(Cl)c(-c3ccc(-c4ccccc4O)cc3)cc12 [Example 133, 6-Chloro-5-(2′-hydroxy-[1,1′-biphenyl]-4-yl)-1H-indole-3-sulfonic acid]
26.8 nM |  | O=C(O)c1n[nH]c2cc(Cl)c(-c3ccc([C@H]4C[C@H](O)C4)cc3)cc12 [Example 126, 6-Chloro-5-(4-((1R,3R)-3-hydroxycyclobutyl)phenyl)-1H-indazole-3-carboxylic acid]
236 nM | 119% | O=C(O)c1c[nH]c2cc(Cl)c(-c3ccc4c(c3)OC[C@H](CO)O4)cc12 [Example 144, 6-chloro-5-[(2S)-2-(hydroxymethyl)-2,3-dihydro-1,4-benzodioxin-6-yl]-1H-indole-3-carboxylic acid]
125 nM | 146% | COC[C@@H](C)Oc1ccc(-c2cc3c(C(=O)O)c[nH]c3cc2Cl)cc1 [Example 158, 6-chloro-5-(4-{[(2R)-1-methoxypropan-2-yl]oxy}phenyl)-1H-indole-3-carboxylic acid]
192 nM | 123% | CC(C)c1ccc(-c2cc3c(C(=O)O)c[nH]c3cc2Cl)cc1 [Example 162, 6-chloro-5-[4-(propan-2-yl)phenyl]-1H-indole-3-carboxylic acid]
15.3 nM | 49.4% | COc1nc(N2CCOCC2)ccc1-c1cc2c(C(=O)O)c[nH]c2cc1Cl [Example 174, 6-chloro-5-[2-methoxy-6-(morpholin-4-yl)pyridin-3-yl]-1H-indole-3-carboxylic acid]
129 nM | 107% | O=C(O)c1c[nH]c2cc(F)c(-c3ccc(C4CCOCC4)cc3)c(F)c12 [Example 166, 4,6-difluoro-5-[4-(tetrahydro-2H-pyran-4-yl)phenyl]-1H-indole-3-carboxylic acid]
28.1 nM | 87.3% | CC(CO)Oc1ccc(-c2cc3c(C(=O)O)c[nH]c3cc2Cl)cc1 (stereo not shown) [Example 183, 6-chloro-5-{4-[(1-hydroxypropan-2-yl)oxy]phenyl}-1H-indole-3-carboxylic acid]
171 nM | 109% | O=C(O)c1c[nH]c2cc(Cl)c(-c3ccc(C4CCCOC4)cc3)cc12 (stereo not shown) [Example 168, 6-chloro-5-[4-(tetrahydro-2H-pyran-3-yl)phenyl]-1H-indole-3-carboxylic acid]
62.3 nM | 111% | COc1cc(-c2cc3c(C(=O)NS(C)(=O)=O)c[nH]c3cc2Cl)ccc1C(C)(C)CO [Example 177, 6-chloro-5-[4-(1-hydroxy-2-methylpropan-2-yl)-3-methoxyphenyl]-N-(methylsulfonyl)-1H-indole-3-carboxamide]
160 nM | 75% | NC(=O)C1(c2ccc(-c3cc4c(C(=O)O)n[nH]c4cc3Cl)cc2)CCC1 [Example 122, 5-(4-(1-Carbamoylcyclobutyl)phenyl)-6-chloro-1H-indazole-3-carboxylic acid]
19 nM | 80% | O=C(O)c1c[nH]c2cc(Cl)c(-c3ccc(OCC4CCO4)cc3)cc12 (stereo not shown) [Example 182, 6-chloro-5-[4-(oxetan-2-ylmethoxy)phenyl]-1H-indole-3-carboxylic acid]
1320 nM | 80% | O=C(O)c1n[nH]c2cc(Cl)c(-c3cccc(O)c3)cc12 [Example 112, 6-Chloro-5-(3-hydroxyphenyl)-1H-indazole-3-carboxylic acid]
